Among the data in US20260274895A1, “DE NOVO DESIGNED MEMBRANE-TRAVERSING AND ORALLY BIOAVAILABLE MACROCYCLES” (UNIVERSITY OF WASHINGTON, priority 2022, published 2026) are Papp values, retold here.

The conditions of the data set: PAMPA, PAMPA_Papp_Avg (apparent permeability).

Where a SMILES comes first, the peptide text is derived from it. [ ]: non-standard residue; d: D form. dNMeF = CN[C@H](Cc1ccccc1)C(=O)O; NMeL = CN[C@@H](CC(C)C)C(=O)O; dNMeL = CN[C@H](CC(C)C)C(=O)O; NMeA = CN[C@@H](C)C(=O)O; dNMeA = CN[C@H](C)C(=O)O

A word on the Papp: it is a coefficient for how fast a substance crosses the barrier.

Consider `CC[C@H](C)[C@@H]1NC(=O)[C@H]2CCCN2C(=O)[C@@H]2CCCN2C(=O)[C@@H](C(C)C)NC(=O)[C@@H](C)N(C)C(=O)[C@H](C)N(C)C(=O)[C@@H](CC(C)C)N(C)C(=O)[C@@H](C(C)C)NC1=O` [Design D8.26, v*l*A*avPpI] (cyclo(I[dV][dNMeL][NMeA][dNMeA][dV]P[dP])), for which the Papp amounted to 0.544 ×10⁻⁶ cm/s. `CC[C@H](C)[C@@H]1NC(=O)[C@H](CC(C)C)N(C)C(=O)[C@H]2CCCN2C(=O)[C@H]2CCCN2C(=O)[C@H](Cc2ccccc2)NC(=O)[C@@H](CC(C)C)NC(=O)[C@H]2CCCN2C(=O)[C@@H]2CCCN2C1=O` [Design D8.27, Fpp*LIPpl] (cyclo(F[dP][dP][NMeL]IP[dP][dL])): the Papp came to 0.315 ×10⁻⁶ cm/s. On to `CSCC[C@@H]1NC(=O)[C@@H]2CCCN2C(=O)[C@@H](C(C)C)NC(=O)[C@@H](C)N(C)C(=O)[C@@H](CC(C)C)NC(=O)[C@@H](CC(C)C)NC(=O)[C@@H]2CCCN2C(=O)[C@H]2CCCN2C1=O` [Design D8.29, MpPll*avP] (cyclo([dL][dL][dNMeA][dV]PM[dP]P)), for which the Papp was found to be 0.236 ×10⁻⁶ cm/s.

For `CC(C)C[C@@H]1C(=O)N[C@H](CC(C)C)C(=O)N2CCC[C@@H]2C(=O)N2CCC[C@@H]2C(=O)N(C)[C@@H](CC(C)C)C(=O)N[C@H](CC(C)C)C(=O)N2CCC[C@@H]2C(=O)N2CCC[C@H]2C(=O)N1C` [Design D8.32, pp*LlpP*ll] (cyclo([dNMeL][dL][dP][dP][NMeL][dL][dP]P)), the Papp was 5.23 ×10⁻⁶ cm/s. In the case of `CC[C@@H](C)[C@H]1NC(=O)[C@H]2CCCN2C(=O)[C@@H]2CCCN2C(=O)[C@@H]([C@H](C)CC)NC(=O)[C@@H](Cc2ccccc2)NC(=O)[C@@H](Cc2ccccc2)N(C)C(=O)[C@@H]2CCCN2C(=O)[C@@H](C(C)C)NC1=O` [Design D8.33, fiPpivP*f] (cyclo(P[dNMeF][dF][dI]P[dP][dI][dV])), the Papp was 6 ×10⁻⁶ cm/s. Take `CC[C@H](C)[C@@H]1NC(=O)[C@@H](C)N(C)C(=O)[C@@H](C)N(C)C(=O)[C@@H]2CCCN2C(=O)[C@H](CC(C)C)NC(=O)[C@H](CC(C)C)NC(=O)[C@@H](CC(C)C)NC(=O)[C@@H]2CCCN2C(=O)[C@H]2CCCN2C1=O` [Design D9.11, PlLLP*a*aIp] (cyclo([dL]LLP[dNMeA][dNMeA]I[dP]P)): the Papp amounted to 0.316 ×10⁻⁶ cm/s. For the compound `CC[C@H](C)[C@@H]1NC(=O)[C@@H](CC(C)C)NC(=O)[C@@H]2CCCN2C(=O)[C@@H]2CCCN2C(=O)[C@@H](CC(C)C)NC(=O)[C@@H]2CCCN2C(=O)[C@H]2CCCN2C(=O)[C@@H](C(C)C)NC(=O)[C@@H](C)N(C)C1=O` [Design D9.14, PlI*avpPlP] (cyclo([dL]PP[dL]I[dNMeA][dV][dP]P)), the Papp was determined as 0.421 ×10⁻⁶ cm/s. For `CC[C@H](C)[C@@H]1NC(=O)[C@@H](C)NC(=O)[C@@H]2CCCN2C(=O)[C@H]2CCCN2C(=O)[C@@H]2CCCN2C(=O)[C@@H](C)NC(=O)[C@@H](Cc2ccccc2)NC(=O)[C@@H](CC(C)C)N(C)C(=O)[C@@H](CC(C)C)N(C)C1=O` [Design D9.15, PpPaI*l*lfa] (cyclo([dA]I[dNMeL][dNMeL][dF][dA]P[dP]P)), the Papp stood at 0.341 ×10⁻⁶ cm/s. Regarding `CC[C@@H](C)[C@H]1NC(=O)[C@H]2CCCN2C(=O)[C@@H](C)NC(=O)[C@@H](CC(C)C)N(C)C(=O)[C@H]([C@@H](C)CC)NC(=O)[C@@H](C(C)C)NC(=O)[C@@H](CC(C)C)N(C)C(=O)[C@@H]2CCCN2C(=O)[C@@H]2CCCN2C1=O` [Design D9.26, piPP*lvI*la] (cyclo(I[dNMeL][dA][dP][dI]PP[dNMeL][dV])), the Papp came to 1.99 ×10⁻⁶ cm/s. Consider `CSCC[C@@H]1NC(=O)[C@@H](C)N(C)C(=O)[C@@H]2CCCN2C(=O)[C@@H](CC(C)C)NC(=O)[C@H](CC(C)C)N(C)C(=O)[C@H]2CCCN2C(=O)[C@H](CC(C)C)NC(=O)[C@@H](CC(C)C)NC(=O)[C@@H](C)NC1=O` [Design D9.28, lLp*LlP*aMa] (cyclo(L[dP][NMeL][dL]P[dNMeA]M[dA][dL])), for which the Papp came out at 1.57 ×10⁻⁶ cm/s.
